“And” between values parts separate entries of the source, which are not always exact repeats. Equal values may be shown once.
System: C57BL/6N mice
Test: Serum ALT and AST activities
Type: in vivo
Details: for Serum ALT activity / Serum AST activity: individual mice
Experimental: Male C57BL/6N mice (8 wk of age) were purchased from Beijing Vital River Laboratory Inc. and acclimated to the environment for 2 wk before they were used for experiments. The environment was maintained at 22°C, in a 12-h light/dark cycle with 50%–60% relative humidity and fed standard chow diets. Because the male mice are more sensitive to metabolic disease than female mice and the estrous cycle of female mice may induce variability to the metabolic phenotypes,[50] only male mice were used in this study. Animals were randomly assigned to control or TPHP treatment groups (five mice per group). Mice were exposed to corn oil (control) purchased from Sigma-Aldrich (C8267) or TPHP (dissolved in corn oil) at 10mg/kg or 50mg/kg body weight (BW) by daily oral gavage for 35 d. The administered volume was 5mL/kg BW. The TPHP corn oil solutions for administration were prepared by dissolving the TPHP in corn oil, and the solutions were stored at −20°C and freshly prepared each week. BW was measured every other day during the dosing period. At the end of experiments, the mice were anesthetized with isoflurane, then blood was collected from the retro-orbital sinus via orbital puncture, and then the mice were euthanized by cervical dislocation. The liver was isolated, weighted, and divided into three fractions: one fraction was fixed with 4% neutral-buffered formalin for Oil Red staining; another fraction was frozen in liquid nitrogen and stored at −80°C for the BA targeted analysis, lipidomic analysis, and qPCR analysis; the remaining fraction was embedded with 3% carboxymethylcellulose (CMC) for MSI analysis. The ileum was also isolated, weighted, and stored at −80°C for the BA targeted analysis and qRT-PCR analysis. Cecal contents were collected from the cecum of mice for the 16S rRNA gene sequencing analysis. Animal study protocols were approved by the Animal Care and Use Committee of Peking University (approval number: Urban-WanY-1).
Blood samples collected from the mice were incubated in a 37°C water bath for 30 min and then incubated under 4°C for 5 h. After centrifuged at 5,000×g and 4°C for 5 min, the serums were aliquoted and stored at −80°C . The determination of serum alanine transaminase (ALT) and aspartate transaminase (AST) activities in the serum were determined using the commercial kits (E2021, E2023; Applygen).

[1] = TPHP-H: 50 mg/kg daily oral gavage 35 d
[2] = TPHP-L: 10 mg/kg daily oral gavage 35 d

O=P(Oc1ccccc1)(Oc1ccccc1)Oc1ccccc1 [TPHP, triphenyl phosphate]
Serum ALT vs control group (in words) (TPHP exposure groups): significantly higher | Serum AST vs control group (in words) (TPHP exposure groups): higher | Serum ALT activity [1]: 14.85 and 21.35 and 16.29 | Serum AST activity [1]: 72.41 and 61.71 and 102.89 | Serum ALT activity [2]: 15.83 and 17.21 and 25.56 | Serum AST activity [2]: 84.28 and 74.46 and 60.21

Source: PMC12010937, “Evaluation of FXR Activity in Pollutants Identified in Sewage Sludge and Subsequent in Vitro and in Vivo Characterization of Metabolic Effects of Triphenyl Phosphate” (Environmental Health Perspectives, 2025)
